From ChEMBL document CHEMBL1129149, “Synthesis and biological evaluation of 4-alkoxysubstituted trinems. Part II” (1996)
Converted amounts (≈) assume the structure as drawn.

Tests used:
Format in all cases: functional
Escherichia coli [1] = assay: In vitro antibacterial activity against Escherichia coli 1850E strain and compared to imipenem
Escherichia coli [2] = assay: In vitro antibacterial activity against Escherichia coli 1919E beta-lactamase producing strain and compared to imipenem
Pseudomonas aeruginosa = assay: In vitro antibacterial activity against Pseudomonas aeruginosa 1911E strain and compared to imipenem
Staphylococcus aureus [3] = assay: In vitro antibacterial activity against Staphylococcus aureus 663E strain and compared to imipenem
Staphylococcus aureus [4] = assay: In vitro antibacterial activity against Staphylococcus aureus 853E beta-lactamase producing strain and compared to imipenem,
Clostridium perfringens = assay: In vitro antibacterial activity against Clostridium perfringens 615E strain and compared to imipenem
Enterococcus faecalis = assay: In vitro antibacterial activity against […] 850 strain and compared to imipenem

Question: Which MIC (Escherichia coli [1]) does the source give for C[C@@H](O)[C@H]1C(=O)N2C(C(=O)[O-])=C3[C@@H](OCCCO)CCC[C@@H]3[C@H]12.[Na+] here?
Answer: Its MIC is 2 µg/mL.

Question: What about the MIC (Escherichia coli [2]) of the same compound?
Answer: Its MIC is 1 µg/mL.

Question: What about the MIC (Pseudomonas aeruginosa) of the same compound?
Answer: Its MIC is greater than 32 µg/mL.

Question: What about the MIC (Staphylococcus aureus [3]) of the same compound?
Answer: Its MIC is 0.2 µg/mL.

Question: What about the MIC (Staphylococcus aureus [4]) of the same compound?
Answer: The MIC was 0.5 µg/mL.

Question: And the MIC (Clostridium perfringens)?
Answer: Its MIC is 30 µg/mL.

Question: What about the MIC (Enterococcus faecalis) of the same compound?
Answer: Its MIC is 8 µg/mL.

Question: With C[C@@H](O)[C@H]1C(=O)N2C(C(=O)[O-])=C3[C@@H](OCCCN)CCC[C@@H]3[C@H]12.[Na+] as the compound, how does the MIC (Escherichia coli [1]) read?
Answer: The MIC was 0.5 µg/mL.

Question: What about the MIC (Escherichia coli [2]) of the same compound?
Answer: Its MIC is 0.5 µg/mL.

Question: And the MIC (Pseudomonas aeruginosa)?
Answer: Its MIC is 16 µg/mL.

Question: And the MIC (Staphylococcus aureus [3])?
Answer: Its MIC is 0.2 µg/mL.

Question: What about the MIC (Staphylococcus aureus [4]) of the same compound?
Answer: The MIC was 0.2 µg/mL.

Question: And the MIC (Clostridium perfringens)?
Answer: Its MIC is 60 µg/mL.

Question: What about the MIC (Enterococcus faecalis) of the same compound?
Answer: Its MIC is 4 µg/mL.

Question: For C[C@@H](O)[C@H]1C(=O)N2C(C(=O)[O-])=C3[C@@H](OCCN=[N+]=[N-])CCC[C@@H]3[C@H]12.[Na+], which MIC (Escherichia coli [1]) is on record?
Answer: Its MIC is 8 µg/mL.

Question: And the MIC (Escherichia coli [2])?
Answer: The MIC was 1 µg/mL.

Question: What about the MIC (Pseudomonas aeruginosa) of the same compound?
Answer: Its MIC is greater than 32 µg/mL.

Question: What about the MIC (Staphylococcus aureus [3]) of the same compound?
Answer: The MIC was 0.25 µg/mL.

Question: And the MIC (Staphylococcus aureus [4])?
Answer: The MIC was 0.5 µg/mL.

Question: And the MIC (Clostridium perfringens)?
Answer: Its MIC is 30 µg/mL.

Question: What about the MIC (Enterococcus faecalis) of the same compound?
Answer: The MIC was 4 µg/mL.

Question: What does the source list for C[C@@H](O)[C@H]1C(=O)N2C(C(=O)[O-])=C3[C@@H](OCC/N=C/N)CCC[C@@H]3[C@H]12.[Na+]?
Answer: MIC (Escherichia coli [1]): 1 µg/mL; MIC (Escherichia coli [2]): 1 µg/mL; MIC (Pseudomonas aeruginosa): 32 µg/mL; MIC (Staphylococcus aureus [3]): 0.25 µg/mL; MIC (Staphylococcus aureus [4]): 0.5 µg/mL; MIC (Clostridium perfringens): 120 µg/mL; MIC (Enterococcus faecalis): 2 µg/mL

Question: With C[C@@H](O)[C@H]1C(=O)N2C(C(=O)[O-])=C3[C@@H](OCCCN=[N+]=[N-])CCC[C@@H]3[C@H]12.[Na+] as the compound, how does the MIC (Escherichia coli [1]) read?
Answer: The MIC was 8 µg/mL.

Question: And the MIC (Escherichia coli [2])?
Answer: The MIC was 1 µg/mL.

Question: And the MIC (Pseudomonas aeruginosa)?
Answer: The MIC was greater than 32 µg/mL.

Question: What about the MIC (Staphylococcus aureus [3]) of the same compound?
Answer: The MIC was 0.2 µg/mL.

Question: What about the MIC (Staphylococcus aureus [4]) of the same compound?
Answer: The MIC was 0.5 µg/mL.

Question: And the MIC (Clostridium perfringens)?
Answer: The MIC was 60 µg/mL.

Question: And the MIC (Enterococcus faecalis)?
Answer: Its MIC is 8 µg/mL.

Question: With C/C(N)=N\CCO[C@H]1CCC[C@H]2C1=C(C(=O)[O-])N1C(=O)[C@H]([C@@H](C)O)[C@@H]21.[Na+] as the compound, how does the MIC (Escherichia coli [1]) read?
Answer: The MIC was 1 µg/mL.

Question: What about the MIC (Escherichia coli [2]) of the same compound?
Answer: The MIC was 0.5 µg/mL.

Question: What about the MIC (Pseudomonas aeruginosa) of the same compound?
Answer: Its MIC is 32 µg/mL.

Question: What about the MIC (Staphylococcus aureus [3]) of the same compound?
Answer: Its MIC is 1 µg/mL.

Question: And the MIC (Staphylococcus aureus [4])?
Answer: The MIC was 2 µg/mL.

Question: And the MIC (Clostridium perfringens)?
Answer: The MIC was 120 µg/mL.

Question: What about the MIC (Enterococcus faecalis) of the same compound?
Answer: The MIC was 16 µg/mL.

Question: C[C@@H](O)[C@H]1C(=O)N2C(C(=O)[O-])=C3[C@@H](OCCN)CCC[C@@H]3[C@H]12.[Na+] was tested. Which MIC (Escherichia coli [1]) did it give?
Answer: The MIC was 0.5 µg/mL.

Question: What about the MIC (Escherichia coli [2]) of the same compound?
Answer: The MIC was 0.5 µg/mL.

Question: What about the MIC (Pseudomonas aeruginosa) of the same compound?
Answer: The MIC was 8 µg/mL.

Question: What about the MIC (Staphylococcus aureus [3]) of the same compound?
Answer: The MIC was 0.5 µg/mL.

Question: What about the MIC (Staphylococcus aureus [4]) of the same compound?
Answer: Its MIC is 0.5 µg/mL.

Question: What about the MIC (Clostridium perfringens) of the same compound?
Answer: Its MIC is 120 µg/mL.

Question: What about the MIC (Enterococcus faecalis) of the same compound?
Answer: The MIC was 8 µg/mL.

Question: Which MIC (Escherichia coli [1]) does the source give for C[C@@H](O)[C@H]1C(=O)N2C(C(=O)O)=C(SCCNC=N)C[C@H]12 [IMIPENEM ANHYDROUS] here?
Answer: The MIC was 0.5 µg/mL (≈ 1.67 µM).

Question: What about the MIC (Escherichia coli [2]) of the same compound?
Answer: The MIC was 0.5 µg/mL (≈ 1.67 µM).

Question: And the MIC (Pseudomonas aeruginosa)?
Answer: The MIC was 4 µg/mL (≈ 13.4 µM).

Question: And the MIC (Staphylococcus aureus [3])?
Answer: Its MIC is 0.12 µg/mL (≈ 0.401 µM).

Question: What about the MIC (Staphylococcus aureus [4]) of the same compound?
Answer: The MIC was 0.12 µg/mL (≈ 0.401 µM).

Question: And the MIC (Clostridium perfringens)?
Answer: Its MIC is 30 µg/mL (≈ 100 µM).

Question: And the MIC (Enterococcus faecalis)?
Answer: The MIC was 2 µg/mL (≈ 6.68 µM).
